Experimental data as given in patent US20240124442A1, “TRICYCLIC-AMIDO-BICYCLIC PRMT5 INHIBITORS” (AMGEN INC., priority 2021, published 2024).

Tests used:
HCT116 WT cells = assay: HCT116 WT (parent) cell line proliferation / cell viability (CellTiter-Glo, 6 days); type: cell-based; settings: Homo sapiens, HCT-116, 144 h, 6 days treatment
Procedure, shortened: (§1)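 CellTiter-Glo luminescence read after 6 days of compound exposure in parental and MTAP-null HCT116 cells grown in RPMI 1640/10% FBS. Dilution series: 1:3 steps, 8–9 points, top 1 or 10 μM; or 1:2 steps, 22 points, top 10 or 50 μM. IC50 = curve transit through 50% of control.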

HCT116 MTAP null cells = assay: HCT116 MTAP null cell line proliferation / cell viability (CellTiter-Glo, 6 days); type: cell-based; settings: 144 h; HCT116 MTAP null cells, 6 days treatment, CellTiter-Glo cell viability; read-out: HCT-116 MTAP null IC50
Procedure, shortened: as §1

Structure (SMILES)	IC50 (HCT116 WT cells)	IC50 (HCT116 MTAP null cells)
Cn1ncc2c(N)nc3cc(F)c(C(=O)N(C4CC4)[C@@H]4COc5cc(C(F)(F)F)ccc54)cc3c21 [Example 200, (S)-4-amino-N-cyclopropyl-7-fluoro-1-methyl-N-(6-(trifluoromethyl)-2,3-dihydrobenzofuran-3-yl)-1H-pyrazolo[4,3-c]quinoline-8-carboxamide]	0.112 µM	0.008 µM
CN(C(=O)c1ccc2nc(N)c3c(c2c1)COC3)[C@@H]1COc2cc(-c3cnn(C)c3)ccc21 [Example 202, 4-amino-N-methyl-N-((3S)-6-(1-methyl-1H-pyrazol-4-yl)-2,3-dihydro-1-benzofuran-3-yl)-1,3-dihydrofuro[3,4-c]-quinoline-8-carboxamide]	11.4 µM	0.083 µM
C[C@H]1OCc2c1c(N)nc1ccc(C(=O)N(C)[C@@H]3COc4cc(-c5cnn(C)c5)ccc43)cc21 [Example 204, (3R)-4-amino-N,3-dimethyl-N-((3S)-6-(1-methyl-1H-pyrazol-4-yl)-2,3-dihydro-1-benzofuran-3-yl)-1,3-dihydrofuro[3,4-c]-quinoline-8-carboxamide]	4.39 µM	0.031 µM
CN(C(=O)c1cc2c3c(c(N)nc2cn1)COC3)[C@@H]1COc2cc(OC(F)(F)F)ccc21 [Example 206, 4-amino-N-methyl-N-((3S)-6-(trifluoromethoxy)-2,3-dihydro-1-benzofuran-3-yl)-1,3-dihydrofuro[3,4-c][1,7]-naphthyridine-8-carboxamide]	9.79 µM	0.1 µM
CN(C(=O)c1cc2c3c(c(N)nc2cn1)COC3)[C@H]1COc2cc(OC(F)(F)F)ccc21 [Example 207, 4-amino-N-methyl-N-((3R)-6-(trifluoromethoxy)-2,3-dihydro-1-benzofuran-3-yl)-1,3-dihydrofuro[3,4-c][1,7]-naphthyridine-8-carboxamide]	23.2 µM	6.06 µM

The remaining lines, values ahead:

IC50 (HCT116 WT cells)	IC50 (HCT116 MTAP null cells)	Structure (SMILES)
3 µM	0.061 µM	CN(C(=O)c1cc2c3c(c(N)nc2cn1)COC3)[C@@H]1COc2cc(Cl)c(Cl)cc21 [Example 209, 4-amino-N-((3S)-5,6-dichloro-2,3-dihydro-1-benzofuran-3-yl)-N-methyl-1,3-dihydrofuro[3,4-c][1,7]naphthyridine-8-carbox-amide]
25.3 µM	2.37 µM	CN(C(=O)c1cc2c3c(c(N)nc2cn1)COC3)[C@H]1COc2cc(Cl)c(Cl)cc21 [Example 210, 4-amino-N-((3R)-5,6-dichloro-2,3-dihydro-1-benzofuran-3-yl)-N-methyl-1,3-dihydrofuro[3,4-c][1,7]naphthyridine-8-carbox-amide]
1.46 µM	0.028 µM	C[C@H]1OCc2c1c(N)nc1cnc(C(=O)N(C)[C@@H]3COc4cc(C(F)(F)F)ccc43)cc21 [Example 211, (3R)-4-amino-N,3-dimethyl-N-((3S)-6-(trifluoromethyl)-2,3-dihydro-1-benzofuran-3-yl)-1,3-dihydrofuro[3,4-c][1,7]-naphthyridine-8-carboxamide]
10.7 µM	0.495 µM	CN(C(=O)c1cc2c3c(c(N)nc2cc1F)COC3)C1COc2ncc(C(F)(F)F)cc21 [Example 212, 4-amino-7-fluoro-N-methyl-N-((3R)-5-(trifluoromethyl)-2,3-dihydrofuro[2,3-b]pyridin-3-yl)-1,3-dihydrofuro[3,4-c]-quinoline-8-carboxamide and 4-amino-7-fluoro-N-methyl-N-((3S)-5-(trifluoromethyl)-2,3-dihydrofuro[2,3-b]pyridin-3-yl)-1,3-dihydrofuro[3,4-c]quin-oline-8-carboxamide]
2.06 µM	0.029 µM	CN(C(=O)c1cc2c3c(c(N)nc2cc1F)COC3)[C@@H]1COc2cc(-c3cnn(C)c3)ccc21 [Example 214, 4-amino-7-fluoro-N-methyl-N-((3S)-6-(1-methyl-1H-pyrazol-4-yl)-2,3-dihydro-1-benzofuran-3-yl)-1,3-dihydrofuro[3,4-c]-quinoline-8-carboxamide]
